Experimental data taken from US11179383B2 (Gilead Sciences, Inc., priority 2018, dated 2021).

Each compound was assayed against T1, α4β7 integrin (Homo sapiens, UniProt P13612+P26010) (assay: α4β7 Integrin Cell Capture Assay). Conditions: capture of α4β7 integrin expressing RPMI8866 cells on recombinant MadCAM-1 extracellular domain-coated plate; DMEM+0.5% FBS+0.5 mM MnCl2; read-out: EC50 α4β7.
T1 construct: monitoring the capture of α4β7 integrin expressing cells on a recombinant MadCAM-1 extracellular domain-coated plate; endogenous in cells; host or cells: RPMI8866 cells
T1 sequence (P13612 34-1032): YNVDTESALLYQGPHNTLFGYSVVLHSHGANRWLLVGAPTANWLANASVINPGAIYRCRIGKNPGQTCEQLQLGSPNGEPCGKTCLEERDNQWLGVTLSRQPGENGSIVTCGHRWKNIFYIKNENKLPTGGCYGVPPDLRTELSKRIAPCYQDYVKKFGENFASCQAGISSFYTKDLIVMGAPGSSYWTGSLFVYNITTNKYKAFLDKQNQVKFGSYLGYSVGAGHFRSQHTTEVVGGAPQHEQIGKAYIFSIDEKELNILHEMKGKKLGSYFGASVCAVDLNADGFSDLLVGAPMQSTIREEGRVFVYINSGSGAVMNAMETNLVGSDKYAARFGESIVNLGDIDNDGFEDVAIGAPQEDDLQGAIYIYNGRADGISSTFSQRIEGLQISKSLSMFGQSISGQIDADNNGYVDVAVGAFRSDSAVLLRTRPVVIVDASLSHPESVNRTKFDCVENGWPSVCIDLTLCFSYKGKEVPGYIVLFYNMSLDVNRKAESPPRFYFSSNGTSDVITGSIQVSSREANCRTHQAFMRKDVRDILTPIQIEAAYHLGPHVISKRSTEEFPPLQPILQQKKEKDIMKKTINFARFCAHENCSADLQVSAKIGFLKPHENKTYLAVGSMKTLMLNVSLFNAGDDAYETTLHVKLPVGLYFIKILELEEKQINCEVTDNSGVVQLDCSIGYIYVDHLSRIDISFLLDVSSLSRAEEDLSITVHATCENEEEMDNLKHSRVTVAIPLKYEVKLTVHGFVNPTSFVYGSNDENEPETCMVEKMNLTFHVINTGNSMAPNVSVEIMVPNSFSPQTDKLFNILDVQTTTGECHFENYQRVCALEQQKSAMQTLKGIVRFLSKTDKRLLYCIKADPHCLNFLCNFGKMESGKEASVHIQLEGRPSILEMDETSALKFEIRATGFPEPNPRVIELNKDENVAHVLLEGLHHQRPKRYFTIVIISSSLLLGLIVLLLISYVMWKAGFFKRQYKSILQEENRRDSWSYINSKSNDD
T1 sequence (P26010 20-798): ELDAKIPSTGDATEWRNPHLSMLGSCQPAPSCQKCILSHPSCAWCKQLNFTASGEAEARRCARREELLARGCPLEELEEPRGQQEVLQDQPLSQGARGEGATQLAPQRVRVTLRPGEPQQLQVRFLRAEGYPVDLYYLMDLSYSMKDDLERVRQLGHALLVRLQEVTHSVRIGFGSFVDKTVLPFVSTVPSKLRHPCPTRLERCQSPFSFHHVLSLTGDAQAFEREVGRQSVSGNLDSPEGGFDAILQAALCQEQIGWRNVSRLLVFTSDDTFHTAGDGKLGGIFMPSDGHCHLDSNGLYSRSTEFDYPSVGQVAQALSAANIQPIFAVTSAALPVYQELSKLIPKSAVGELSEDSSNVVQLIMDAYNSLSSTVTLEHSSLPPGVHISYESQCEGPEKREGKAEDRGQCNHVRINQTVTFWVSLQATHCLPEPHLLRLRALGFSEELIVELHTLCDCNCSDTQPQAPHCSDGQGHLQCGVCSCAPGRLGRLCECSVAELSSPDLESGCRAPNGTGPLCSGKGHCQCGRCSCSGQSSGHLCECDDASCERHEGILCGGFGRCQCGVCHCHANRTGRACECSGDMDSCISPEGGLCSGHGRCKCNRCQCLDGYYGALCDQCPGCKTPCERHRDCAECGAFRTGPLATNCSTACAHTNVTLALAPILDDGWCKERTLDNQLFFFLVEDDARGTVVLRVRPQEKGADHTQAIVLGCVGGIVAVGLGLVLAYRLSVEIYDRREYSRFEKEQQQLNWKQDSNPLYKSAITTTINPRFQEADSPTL
Assay type: cell-based
Experimental: α4β7 Integrin Cell Capture Assay
The potency of inhibitors in preventing α4β7 integrin interaction with MadCAM-1 was measured by monitoring the capture of α4β7 integrin expressing cells on a recombinant MadCAM-1 extracellular domain-coated plate.
384-Well plates (Corning 3702) were coated with MadCAM-1 extracellular domain by dispensing 20 μL of MAdCAM-1 at 1.0 μg/mL per well and incubating overnight at 4° C. The plates were then washed with PBS and blocked with 3% BSA for 2 hours before being washed again.
RPMI8866 cells were spun down and re-suspended in assay medium (DMEM+0.5% FBS+0.5 mM MnCl2) at a density of 0.5×10^6 cells/mL. The cells were then dispensed (60 μL/well) to a 384-well plate (Greiner 781280) that was previously spotted with 60 nL of test compound per well. The plates were incubated at 37° C. for 1 hour. 50 μL of cells were transferred to the blocked, MadCAM-1-coated plates and incubated for 30 minutes at 37° C. 10 μL of 12% glutaraldehyde containing Hoechst 33342 (0.06 mg/mL) was added to the cells (2% glutaraldehyde and 0.01 mg/mL final concentrations). The plates were incubated for 90 minutes at room temperature. The plates were then washed 3 times with 70 μL of PBS per well and imaged on a Cellomics ArrayScan instrument. The cells that were bound to the plate were counted and plotted against the compound concentration to determine the EC50 of the test compounds.

Row | SMILES | EC50 [nM]
1 | COc1cc(F)c(F)cc1-c1ccc(C[C@H](NC(=O)c2c(Cl)cccc2Cl)C(=O)O)c2nccc(Cl)c12 (single isomer, unassigned) [Example 95] | 15.2
2 | COc1cc(F)c(F)cc1-c1ccc(C[C@H](NC(=O)c2c(Cl)cccc2Cl)C(=O)O)c2nccc(Cl)c12 (single isomer, unassigned) [Example 96] | 572
3 | COc1cc(F)c(F)cc1-c1ccc(C[C@H](NC(=O)c2c(Cl)cccc2Cl)C(=O)O)c2nccc(C)c12 (single isomer, unassigned) [Example 98] | 469
4 | COc1cc(F)c(F)cc1-c1ccc(C[C@H](NC(=O)c2c(Cl)cccc2Cl)C(=O)O)c2nccc(C)c12 (single isomer, unassigned) [Example 99] | 50.4
5 | Cc1c(-c2ccc(C[C@H](NC(=O)c3c(Cl)cccc3Cl)C(=O)O)c3ccccc23)c(=O)n(C)c(=O)n1C (single isomer, unassigned) [Example 109] | 2.1
6 | Cc1c(-c2ccc(C[C@H](NC(=O)c3c(Cl)cccc3Cl)C(=O)O)c3ccccc23)c(=O)n(C)c(=O)n1C (single isomer, unassigned) [Example 110] | 14.2
7 | Cc1c(-c2ccc(C[C@H](NC(=O)c3c(Cl)cccc3Cl)C(=O)O)c3ccccc23)c(=O)n(C)c2ccccc12 (single isomer, unassigned) [Example 117] | 82
8 | Cc1c(-c2ccc(C[C@H](NC(=O)c3c(Cl)cccc3Cl)C(=O)O)c3ccccc23)c(=O)n(C)c2ccccc12 (single isomer, unassigned) [Example 118] | 2.5
9 | Cc1c(-c2ccc(C[C@H](NC(=O)c3c(F)cccc3F)C(=O)O)c3ccccc23)c(=O)n(C)c2ccccc12 (single isomer, unassigned) [Example 119] | 82.9
10 | Cc1c(-c2ccc(C[C@H](NC(=O)c3c(F)cccc3F)C(=O)O)c3ccccc23)c(=O)n(C)c2ccccc12 (single isomer, unassigned) [Example 120] | 1.5
11 | COc1cc(C)n(C)c(=O)c1-c1ccc(C[C@H](NC(=O)c2c(F)cc(N3CCOC[C@@H]3C(F)(F)F)cc2F)C(=O)O)c2ccccc12 (single isomer, unassigned) [Example 124] | 0.2
12 | COc1cc(C)n(C)c(=O)c1-c1ccc(C[C@H](NC(=O)c2c(F)cc(N3CCOC[C@@H]3C(F)(F)F)cc2F)C(=O)O)c2ccccc12 (single isomer, unassigned) [Example 125] | 0.5

Further lines, results first:

Row | EC50 [nM] | SMILES
13 | 6.4 | Cc1cc(C)n(C)c(=O)c1-c1ccc(C[C@H](NC(=O)c2c(F)cc(N3CCOC[C@@H]3C(F)(F)F)cc2F)C(=O)O)c2ccccc12 (single isomer, unassigned) [Example 126]
14 | 0.4 | Cc1cc(C)n(C)c(=O)c1-c1ccc(C[C@H](NC(=O)c2c(F)cc(N3CCOC[C@@H]3C(F)(F)F)cc2F)C(=O)O)c2ccccc12 (single isomer, unassigned) [Example 127]
15 | 1.7 | Cc1cc(C(F)(F)F)c(-c2ccc(C[C@H](NC(=O)c3c(F)cc(N4CCOC[C@@H]4C(F)(F)F)cc3F)C(=O)O)c3ccccc23)c(=O)n1C (single isomer, unassigned) [Example 128]
16 | 0.1 | Cc1cc(C(F)(F)F)c(-c2ccc(C[C@H](NC(=O)c3c(F)cc(N4CCOC[C@@H]4C(F)(F)F)cc3F)C(=O)O)c3ccccc23)c(=O)n1C (single isomer, unassigned) [Example 129]
17 | 0.6 | CC[C@@H](Nc1cc(F)c(C(=O)N[C@@H](Cc2ccc(-c3c(OC)cc(C)n(C)c3=O)c3ccccc23)C(=O)O)c(F)c1)C(F)(F)F (single isomer, unassigned) [Example 130]
18 | 0.5 | CC[C@@H](Nc1cc(F)c(C(=O)N[C@@H](Cc2ccc(-c3c(OC)cc(C)n(C)c3=O)c3ccccc23)C(=O)O)c(F)c1)C(F)(F)F (single isomer, unassigned) [Example 131]
19 | 13.7 | CC[C@@H](Nc1cc(F)c(C(=O)N[C@@H](Cc2ccc(-c3c(C)cc(C)n(C)c3=O)c3ccccc23)C(=O)O)c(F)c1)C(F)(F)F (single isomer, unassigned) [Example 132]
